Assays:
[1] = test system: p27 and p21 protein expression; test: Immunoblotting of SCF substrates in prostate cancer cells; format: cell-based
Text: Cells were lysed with RIPA buffer in the presence of protease inhibitor cocktail (Roche). The following antibodies were used for immunoblotting analysis: anti-Skp2 (Invitrogen), anti-Xpress (Invitrogen), anti-p27 (BD transduction laboratories), anti-p21 (Santa Cruz), anti-β-actin (Sigma), anti-α-tubulin (Sigma), anti-phospho-Akt (Thr308) (Cell Signaling), anti-phospho-Akt (Ser473) (Cell Signaling), and anti-HA (Convance). For immunohistochemistry, tissues were fixed in 10% formalin and embedded in paraffin in accordance with standard procedures. Sections were stained with anti-Skp2 (Invitrogen), anti-p27 (Epitomics), anti-phosphoAkt (SerS473) (Cell signaling), anti-Glut1 (Abcam), and anti-Ki67 (Abcam). TUNEL staining was performed by using in situ cell death detection kit-POD (Roche).

FBW7 = biological target: T1, FBW7 (Homo sapiens, UniProt Q969H0); test: In vivo ubiquitination assay, FBW7 substrates; format: cell-based; settings: in the presence of proteasome inhibitor
T1 construct: expressed in transfected cells; host or cells: 293T
T1 sequence (Q969H0 whole entry, species assumed): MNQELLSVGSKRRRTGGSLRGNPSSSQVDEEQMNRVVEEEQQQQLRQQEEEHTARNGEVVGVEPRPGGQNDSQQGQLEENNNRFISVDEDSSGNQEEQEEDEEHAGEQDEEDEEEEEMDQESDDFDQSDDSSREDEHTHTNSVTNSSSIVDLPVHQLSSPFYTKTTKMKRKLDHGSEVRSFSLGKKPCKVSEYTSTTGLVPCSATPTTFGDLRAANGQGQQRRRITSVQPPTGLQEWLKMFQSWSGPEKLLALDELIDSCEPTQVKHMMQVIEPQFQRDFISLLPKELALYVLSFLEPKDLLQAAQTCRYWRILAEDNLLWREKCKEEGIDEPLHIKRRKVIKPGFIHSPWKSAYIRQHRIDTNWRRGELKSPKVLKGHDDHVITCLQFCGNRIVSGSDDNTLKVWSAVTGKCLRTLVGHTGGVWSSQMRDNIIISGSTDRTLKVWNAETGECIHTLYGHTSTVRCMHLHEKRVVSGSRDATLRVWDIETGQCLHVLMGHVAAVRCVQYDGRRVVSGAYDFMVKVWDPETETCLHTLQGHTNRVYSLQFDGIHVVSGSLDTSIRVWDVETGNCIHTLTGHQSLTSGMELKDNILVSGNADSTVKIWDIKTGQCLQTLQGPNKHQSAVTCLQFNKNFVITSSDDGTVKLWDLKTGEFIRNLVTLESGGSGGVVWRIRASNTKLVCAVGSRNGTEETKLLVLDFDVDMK
Description: In vivo and in vitro ubiquitination assays were performed as described with modification (Lin et al., 2009; Yang et al., 2009). For in vitro ubiquitination assay, recombinant GST-Akt proteins were expressed, purified and eluted from the bacterial lysates of BL21 competent cells. Flag-Skp2 SCF complex were expressed in 293T cells, immunoprecipitated by anti-Flag antibody, and eluted from Protein A/G beads using Flag peptides according to manufacturers' standard procedures. Purified GST-Akt and Flag-SCF proteins were incubated for 3 h at 37° C. in the absence and presence of Skp2 inhibitor. After incubation, protein mixtures were diluted in E1A Buffer and the supernatant fluid was precleared with Protein A/G beads for 1 h, and immunoprecipitated overnight with anti-Flag antibody, after which Protein A/G beads were added for an additional 1 h. Beads were washed 4 times with E1A Buffer. Proteins were eluted in SDS-sample buffer and subjected to immunoblotting analysis. For in vivo ubiquitination assay, 293T cells were transfected with the indicated plasmids and cultured in the absence or presence of Skp2 inhibitor for 48 h. 6 h before harvest, cells were cultured in the presence of MG132. After cell harvest, cells were lysed by the denatured buffer (6M guanidine-HCl, 0.1M Na2HPO4/NaH2PO4, 10 mM imidazole). […]

[2] = biological target: T2, Skp1/Skp2 binding interaction (Homo sapiens, UniProt Q13309); test: In vitro Skp2-Skp1 binding assay (GST pull-down); settings: amount of intact Skp1/Skp2 remaining after treatment, quantified on western blot/images
T2 construct: made in house; host or cells: GST-Skp1: E. coli BL21; Skp2: in vitro translation
T2 sequence (Q13309 whole entry): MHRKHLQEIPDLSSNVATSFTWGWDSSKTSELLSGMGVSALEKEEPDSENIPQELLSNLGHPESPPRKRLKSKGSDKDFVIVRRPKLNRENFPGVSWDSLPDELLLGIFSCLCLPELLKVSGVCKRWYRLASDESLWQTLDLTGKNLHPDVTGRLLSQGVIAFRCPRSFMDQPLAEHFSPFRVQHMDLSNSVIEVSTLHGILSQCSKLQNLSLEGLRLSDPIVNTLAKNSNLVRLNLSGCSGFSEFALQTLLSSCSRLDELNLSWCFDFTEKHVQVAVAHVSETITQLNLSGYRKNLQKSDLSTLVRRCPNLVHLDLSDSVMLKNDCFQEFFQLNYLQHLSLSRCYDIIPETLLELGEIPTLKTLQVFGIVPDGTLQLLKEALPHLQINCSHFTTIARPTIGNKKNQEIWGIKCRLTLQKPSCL
Description: For in vitro GST-Skp1 and Skp2 interaction, GST-Skp1 proteins purified from the bacterial lysates of BL21 competent cells transformed with pGEX-4X1-Skp1 using the Glutathione-Agarose beads according to the manufacturer's standard procedures. The GST-Skp1 proteins bound to glutathione Sepharose beads (Amersham Biosciences) were then incubated with the in vitro translated [35^S]-Skp2 for 2 hours at 4° C. in the interaction buffer with or without compound #25 (20 mM HEPES, PH 7.9, 150 mM KCl. 5 mM EDTA, 0.5 mM DTT, 0.1% (v/v) Nonidet p-40, 0.1% (w/v) BSA, 1 mM PMSF, and 10% Glycerol), washed by the NETN buffer (20 mM Tris, pH 8.0, 100 mM NaCl, 6 mM MgCl2, 1 mM EDTA, 0.5% Nonidet P-40, 1 mM DTT, 8% glycerol, 1 mM PMSF) 4 times, and subjected to 8% SDS-PAGE, followed by autoradiography.
Below are the original lead compound and 11 similar compounds that were tested for their ability to block the Skp1/Skp2 binding interaction in an in vitro assay. The quantification was made on western blot/images, and the percentages represent the amount of intact Skp1/Skp2 remaining after treatment. In vitro binding assays were performed. For in vitro GST-Skp1 and Skp2 interaction, GST-Skp1 proteins purified from the bacterial lysates of BL21 competent cells transformed with pGEX-4X1-Skp1 using the Glutathione-Agarose beads were performed according to the manufacturer's standard procedures. The GST-Skp1 proteins bound to glutathione Sepharose beads (Amersham Biosciences) were then incubated with the in vitro translated [35^S]-Skp2 for 2 hours at 4° C. in the interaction buffer with or without lead compound and 11 similar compounds (20 mM HEPES, PH 7.9, 150 mM KCl. 5 mM EDTA, 0.5 mM DTT, 0.1% (v/v) Nonidet p-40, 0.1% (w/v) BSA, 1 mM PMSF, and 10% Glycerol), washed by the NETN buffer (20 mM Tris, pH 8.0, 100 mM NaCl, 6 mM MgCl2, 1 mM EDTA, 0.5% Nonidet P-40, 1 mM DTT, 8% glycerol, 1 mM PMSF) 4 times, and subjected to 8% SDS-PAGE, followed by autoradiography. The data presented in Table 1 below was obtained using the Skp1/Skp2 binding affinity assay. The quantification percentage results listed below are based on the western blot results.

Compound | Normalized w/ vehicle treatment [2] | other results
NS(=O)(=O)OC[C@@H]1C[C@@H](n2ccc3c(N[C@H]4CCc5ccccc54)ncnc32)C[C@@H]1O [MLN4924, reference compound] |  | heat shock protein 27 (Hsp27) expression ([1]; LNCaP prostate cancer cells): induced expression; stabilization/induction of SCF substrates ([1]; Skp2, Fbw7 and β-TrCP substrates, FIGS. 3E and 11A): globally induced; FBW7-mediated ubiquitination (c-Jun, MCL-1) (FBW7): profoundly attenuated
Cn1c(-c2cc3ccc(O)c(CN4CCCC4)c3oc2=O)nc2ccccc21 [compound 343] | 35% | 
CCc1cc2c(=O)c(-c3nc4ccccc4s3)coc2c(CN2CCOCC2)c1O [compound 354] | 10% | 
CCc1cc2c(=O)c(-c3nc4ccccc4s3)coc2cc1O [compound 378] | 100% (no effect) | 
Cn1c(-c2cc3ccc(O)c(CN4CCCCC4)c3oc2=O)nc2ccccc21 [compound 435] | 40% | 
Cn1c(-c2cc3ccc(O)c(CN4CCCCCC4)c3oc2=O)nc2ccccc21 [compound 580] | 8% | 
Nc1oc2cc(O)ccc2c(=O)c1-c1nc2ccccc2s1 [compound 649] | 8% | 
CCc1cc2c(=O)c(-c3nc4ccccc4s3)coc2c(CN(C)C)c1O [compound 653] | 8% | 
O=c1c(-c2nc3ccccc3s2)coc2cc(O)ccc12 [compound 684] | 75% | 
O=c1oc2c(CN(CCO)CCO)c(O)ccc2cc1-c1nc2ccccc2s1 [compound 719] | 80% | 
CN(C)Cc1c(O)ccc2cc(-c3nc4ccccc4o3)c(=O)oc12 [compound 820] | 10% | 
COc1ccccc1C(=O)Oc1ccc2c(=O)c(-c3nc4ccccc4s3)coc2c1 [compound 837] | 8% | 
